Reference: patent US12637474B2, “Five-membered heteroaromatic imidazole compound and use thereof” (Hangzhou Sciwind Biosciences Co., Ltd, priority 2020, dated 2026)
Values belong to the compound of their own block, whether it stands above or below them.

How the values were obtained:
[1] = biological target: T1, Human-GLP1 (Homo sapiens, UniProt P43220); test: In vitro cell activity test (cAMP detection, GLP-1 HEK293 cells); assay type: cell-based; conditions: HEK293 cells expressing GLP-1 target
T1 construct: the earlier reading says HEK293
Method: Experimental Embodiment 1. In Vitro Cell Activity Test
The cell was constructed by Shanghai WuXi AppTec New Pharmaceutical Development Co., Ltd. The detailed information is as follows.
The compound was formulated to a working concentration of 30 μM with DMSO. In this experiment, the amount of each sample used was 5 μL.
The pH value was adjusted to 7.4 and diluted to 25 mL with HBSS 1×.
Preparation of cAMP detection reagent, 250 μL of cAMP-D2 and 250 μL of anti-cAMP cryptate reagent were added to 4 mL of lysis buffer, and the mixture was mixed gently.
The compound to be tested was 3-fold diluted at 10 points, the initial concentration was 30 μM, and the dilution was completed and treated by Bravo.
The reference compound exenatide was 3-fold diluted at 10 points, the initial concentration was 500 nM, and the dilution was completed and treated by Bravo.
• 1) 100 nL of the compound was transferred to OptiPlate-384 plate using Echo. • 2) The OptiPlate-384 plate was centrifuged at 1000 rpm for 5 seconds. c) Preparation of Cell Suspension • 1) A cryopreservation tube of GLP-1 cells was quickly thawed in 37° C. warm water. • 2) The cell suspension was transferred to a Transfer 15 mL centrifuge tube, and rinsed gently with 10 mL of HBSS. • 3) The centrifuge tube was centrifuged at 1000 rpm for 1 minute at room temperature. • 4) The supernatant was discarded. • 5) The bottom cells were gently homogenized and then gently rinsed with 10 mL of HBSS, centrifuged and settled, the cells were finally re-suspend with experimental buffer. • 6) Cell density and activity were measured by Vi-cell. • 7) The concentration of GLP-1 cells was diluted to 2.0*10^5/mL with experimental buffer. • 8) […] of diluted cell suspension was transferred into OptiPlate-384 plate. • 9) The cells was incubated at room temperature for 30 minutes. d) Detection Reagent was Added: • 1) 10 μL of 800 nM gradient diluted cAMP standard was added to the empty well of OptiPlate-384 plate. • 2) 10 μL of cAMP detection reagent was added. • 3) The OptiPlate-384 plate was covered with TopSeal-A film and incubated at room temperature for 60 minutes.
TopSeal-A was removed and read by EnVision.

[2] = DMPK study in mice; assay type: in vivo; conditions: male C57 mice, plasma; for Oral DNAUC / bioavailability / Cmax: oral 5 mg/kg; for Oral DNAUC: DNAUC=AUCPO/Dose; for half-life / bioavailability / clearance / Vd / Cmax: mouse; for half-life: oral, 5 mg/kg; for half-life / clearance / Vd: single dose; for Vd: read-out: Vdss
Method: Male C57 mice were used as test animals, after a single dose, the plasma concentration of the compound was determined and the pharmacokinetic behavior was evaluated.
Three healthy adult male C57 mice were selected as oral group. In the oral group, the solvent was 20% PEG400/10% solutol/70% water, the compounds to be tested were mixed with the solvent, the mixture was votexed and sonicated to prepare a 0.5 mg/mL clear solution. After oral administration of 5 mg/kg, the whole blood of mice was collected for a certain period of time, and the plasma was prepared, the drug concentration was analyzed by LC-MS/MS, and the pharmacokinetic parameters were calculated by Phoenix WinNonlin software (Pharsight Company, USA).
Note: -- refers to untested; PEG refers to polyethylene glycol; solutol refers to polyethylene glycol-15 hydroxystearate; Cmax refers to maximum concentration; DNAUC=AUCPO/Dose, AUCPO refers to oral exposure and Dose refers to drug dose; Vdss refers to distribution volume; Cl refers to clearance rate; T1/2 refers to half-life.

[3] = tested on: MDR1-MDCKII cells; test: Permeability test (MDR1-MDCKII monolayer cell model); assay type: in vitro ADME; conditions: 2.00 μM, low/high boundaries equivalent to 50% and 80% of human calculated Fa
Method: (§1) The objective of this study was to determine the bidirectional permeability and efflux rate of the samples by using MDR1-MDCKII monolayer cell model.
(§2) MDR1-MDCKII cells (11th generation) were inoculated into 96-well cell culture plate and cultured continuously for 4-7 days for transport experiment. The sample was administered in both directions at a concentration of 2.00 μM. After incubation for 150 min, the sample was collected and the content of the test product in the sample was determined by liquid chromatography-tandem mass spectrometry (LC-MS/MS).
(§3) When the administration concentration was 2.00 μM, the average apparent permeability coefficient (Papp) of the test product from the top to the basal end (A-B) direction, the average apparent permeability coefficient from the basal end to the top (B-A) direction, and the efflux ratio (ER) are shown in Table 5. Note: The boundaries of low and high permeability grades were equivalent to 50% and 80% of human “calculated Fa”. The grading criteria were based on WuXi AppTec's routine MDR1-MDCK II permeability test (test concentration was 2 μM, incubation for 2.5 hours).

[4] = tested on: MDR1 (P-gp); test: as above; assay type: in vitro ADME; conditions: dog, MDCK-MDR1, incubation 150 min, read-out: Efflux rate
Method: as §1, §2, §3

[5] = as above; assay type: in vitro ADME; conditions: dog, MDCK-MDR1, incubation 150 min; for Papp B→A at 150 min, 2 μM: basal end to top; for Papp A→B at 150 min, 2 μM: top to basal end
Method: as §1, §2, §3

[6] = biological target: T2, hERG potassium channel (Homo sapiens, UniProt Q12809); test: hERG test (automatic patch clamp, CHO-hERG cells); assay type: cell-based; conditions: hERG current; for IC50: Qpatch; for Maximum concentration inhibition rate (%): highest test concentration 40 μM
T2 construct: expressed in transfected cells; host or cells: CHO-hERG cells
Method: The effects of compounds on the current of hERG potassium channel (human Ether-a-go-go Related Gene potassium channel) were measured by the automatic patch clamp method.
CHO-hERG cells were cultured in a 175 cm^2 flask, when the cell density reached 60-80%, the culture medium was removed, the cells were washed once with 7 mL of PBS (Phosphate Buffered Saline), and then detached with 3 mL of Detachin. After digestion was completed, 7 mL of culture medium was added to neutralize, then the mixture was centrifuged, the supernatant was aspirated, and then 5 mL of culture medium was added to re-suspend, ensuring 2-5×10^6/mL of cell density.
Extracellular fluid formulation (mM): 140 NaCl, 5 KCl, 1 CaCl2, 1.25 MgCl2, 10 HEPES and 10 Glucose, the pH value was adjusted to 7.4 with NaOH.
Intracellular fluid formulation (mM): 140 KCl, 1 MgCl2, 1 CaCl2, 10 EGTA and 10 HEPES, the pH value was adjusted to 7.2 with KOH.
The process of single cell high impedance sealing and whole cell mode formation were all automatically completed by Qpatch instrument, after obtaining the whole cell recording mode, the cells were clamped at −80 mV, before giving a 5-second+40 mV depolarization stimulus, a 50 millisecond −50 mV prevoltage was given first, and then repolarized to −50 mV for 5 seconds, then returned to −80 mV. This voltage stimulation was applied every 15 seconds and after recording for 2 minutes, extracellular fluid was recordings for 5 minutes, and then the administration process was started, the compound concentration was given from the lowest test concentration, each test concentration was given for 2.5 minutes, and 3 μM of Cisapride as the positive control compound was given after all concentrations were continuously given. At least 3 cells (n>3) were tested at each concentration.
The mother liquor of the compound was diluted with DMSO, and 10 μL of mother liquor of the compound was added to 20 μL of DMSO solution, and was 3-fold diluted continuously to 6 DMSO concentrations. 4 μL of compounds with 6 DMSO concentrations were added to 396 μL of extracellular fluid, 100-fold diluted to 6 intermediate concentrations, and then 80 μL of the compounds with 6 intermediate concentrations were added to 320 μL of extracellular fluid, 5-fold diluted to the final concentration to be tested. The highest test concentration was 40 μM, in a total of 6 concentrations of 40, 13.3, 4.4, 1.48, 0.494 and 0.165 μM respectively. The content of DMSO in the final test concentration was not more than 0.2%, and this concentration of DMSO had no effect on hERG potassium channel. The whole dilution process of compound preparation was completed by Bravo instrument.
The experimental data were analyzed by GraphPad Prism 5.0 software. […]

[7] = DMPK study in cynomolgus monkey; assay type: in vivo; conditions: male cynomolgus monkey, plasma; for Cmax / Oral DNAUC / bioavailability: oral 3 mg/kg; for Vd: read-out: Vdss
Method: Male cynomolgus monkey were used as test animals, after a single dose, the plasma concentration of the compound was determined and the pharmacokinetic behavior was evaluated.
Two healthy male cynomolgus monkeys were selected as the oral group. The solvent of the oral group was 20% PEG 400+10% solutol+70% water. The compounds to be tested were mixed with the solvent, the mixture was votexed and sonicated to prepare a 0.5 mg/mL approximately clear solution. The oral dosage of cynomolgus monkeys was 3 mg/kg, after oral administration, the whole blood of cynomolgus monkeys was collected for a certain period of time, and the plasma was prepared, the drug concentration was analyzed by LC-MS/MS, and the pharmacokinetic parameters were calculated by Phoenix WinNonlin software (Pharsight Company, USA).

T2 sequence (Q12809 whole entry): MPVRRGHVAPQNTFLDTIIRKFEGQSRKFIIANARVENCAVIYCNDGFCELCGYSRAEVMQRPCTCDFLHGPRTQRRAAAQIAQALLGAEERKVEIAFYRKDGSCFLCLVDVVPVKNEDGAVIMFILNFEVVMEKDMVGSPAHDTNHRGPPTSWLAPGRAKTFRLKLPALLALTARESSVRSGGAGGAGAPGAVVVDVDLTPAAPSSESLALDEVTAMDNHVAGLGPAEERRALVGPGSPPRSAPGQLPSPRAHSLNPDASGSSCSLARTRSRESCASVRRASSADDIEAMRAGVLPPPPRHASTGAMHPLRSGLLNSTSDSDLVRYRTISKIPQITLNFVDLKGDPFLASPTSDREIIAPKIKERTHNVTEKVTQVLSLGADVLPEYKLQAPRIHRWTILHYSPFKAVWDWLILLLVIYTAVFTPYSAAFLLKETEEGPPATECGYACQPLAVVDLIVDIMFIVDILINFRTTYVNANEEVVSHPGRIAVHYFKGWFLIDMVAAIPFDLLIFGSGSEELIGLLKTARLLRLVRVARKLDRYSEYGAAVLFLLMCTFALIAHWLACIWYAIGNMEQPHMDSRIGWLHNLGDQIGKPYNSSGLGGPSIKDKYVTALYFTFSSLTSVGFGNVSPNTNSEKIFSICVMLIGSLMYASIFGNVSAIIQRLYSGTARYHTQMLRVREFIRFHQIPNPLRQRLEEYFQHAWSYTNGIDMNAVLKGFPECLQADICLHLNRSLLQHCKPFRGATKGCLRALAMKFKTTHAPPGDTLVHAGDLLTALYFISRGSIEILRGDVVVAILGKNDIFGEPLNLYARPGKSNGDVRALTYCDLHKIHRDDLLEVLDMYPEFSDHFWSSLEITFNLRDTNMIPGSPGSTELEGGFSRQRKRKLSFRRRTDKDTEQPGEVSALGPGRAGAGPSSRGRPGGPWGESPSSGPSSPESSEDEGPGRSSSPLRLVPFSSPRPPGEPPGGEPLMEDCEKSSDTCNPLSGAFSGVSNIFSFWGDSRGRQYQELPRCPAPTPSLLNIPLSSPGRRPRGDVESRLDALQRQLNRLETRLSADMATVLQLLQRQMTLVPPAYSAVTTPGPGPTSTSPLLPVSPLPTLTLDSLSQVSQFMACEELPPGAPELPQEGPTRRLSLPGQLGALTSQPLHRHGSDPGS
T1 sequence (P43220 24-463): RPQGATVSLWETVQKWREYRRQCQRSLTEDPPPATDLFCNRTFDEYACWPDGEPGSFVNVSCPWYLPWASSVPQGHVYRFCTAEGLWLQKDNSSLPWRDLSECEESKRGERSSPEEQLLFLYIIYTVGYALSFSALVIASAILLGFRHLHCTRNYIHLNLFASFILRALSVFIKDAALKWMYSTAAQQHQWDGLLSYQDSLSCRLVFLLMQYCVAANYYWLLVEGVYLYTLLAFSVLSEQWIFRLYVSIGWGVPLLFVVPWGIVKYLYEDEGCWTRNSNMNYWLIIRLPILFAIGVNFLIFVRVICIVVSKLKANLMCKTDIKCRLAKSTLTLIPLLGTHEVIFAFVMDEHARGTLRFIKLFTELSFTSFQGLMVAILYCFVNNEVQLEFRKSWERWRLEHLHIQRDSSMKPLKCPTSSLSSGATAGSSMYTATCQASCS

SMILES: O=C(O)c1cc2nc(CN3CC=C(c4cccc(OCc5ccc(Cl)cc5F)c4)CC3)n(C[C@@H]3CCO3)c2s1 [WXA012]
EC50 [1]: 9.4 nM

SMILES: O=C(O)c1cc2nc(CN3CC=C(c4ccc(F)c(OCc5ccc(Cl)cc5F)n4)CC3)n(C[C@@H]3CCO3)c2s1 [WXA016]
EC50 [1]: 3.52 nM

SMILES: N#Cc1ccc(COc2cccc(C3CCN(Cc4nc5cc(C(=O)O)sc5n4C[C@@H]4CCO4)CC3)n2)c(F)c1 [WXA004]
EC50 [1]: 1.9 nM

SMILES: N#Cc1ccc(COc2cccc(C3=CCN(Cc4nc5sc(C(=O)O)cc5n4C[C@@H]4CCO4)CC3)c2)c(F)c1 [WXA013]
EC50 [1]: 2.46 nM

SMILES: N#Cc1ccc(COc2cccc(C3=CCN(Cc4nc5cc(C(=O)O)sc5n4C[C@@H]4CCO4)CC3)n2)c(F)c1 [WXA002]
EC50 [1]: 2.7 nM

SMILES: N#Cc1ccc(COc2cccc(C3=CCN(Cc4nc5cc(C(=O)O)sc5n4C[C@@H]4CCO4)CC3)c2)c(F)c1 [WXA014]
EC50 [1]: 9.6 nM

SMILES: O=C(O)c1cc2c(nc(CN3CC=C(c4cccc(OCc5ccc(Cl)cc5F)c4)CC3)n2C[C@@H]2CCO2)s1 [WXA011]
EC50 [1]: 1.94 nM

SMILES: O=C(O)c1cc2c(nc(CN3CC=C(c4cccc(OCc5ccc(Cl)cc5F)n4)CC3)n2C[C@@H]2CCO2)s1 [WXA005]
Oral DNAUC [2]: 301.8 nM.h/mpk
half-life [2]: 2.47 h
bioavailability [2]: 63%
clearance [2]: 3.82 L/h/kg
Vd [2]: 2.84 L/kg
Cmax [2]: 0.835 µM
Rank (permeability grade) [3]: High
efflux ratio at 150 min, 2 μM [4]: 1.18
Papp B→A at 150 min, 2 μM [5]: 84.9 nm/s
Papp A→B at 150 min, 2 μM [5]: 71.9 nm/s
IC50 [6]: > 40000 nM
Maximum concentration inhibition rate (%) [6]: 33.1%
Cmax [7]: 0.245 µM
Oral DNAUC [7]: 889 nM.h/mpk
half-life ([7]; oral, 3 mg/kg, single dose): 4.94 h
bioavailability [7]: 31%
clearance ([7]; single dose): 0.642 L/h/kg
Vd ([7]; single dose): 0.59 L/kg

SMILES: Cc1c(C(=O)O)sc2nc(CN3CC=C(c4cccc(OCc5ccc(Cl)cc5F)n4)CC3)n(C[C@@H]3CCO3)c12 [WXA008]
EC50 [1]: 2.46 nM

More lines, in order of falling EC50 [1], values ahead:

EC50 [1]: 1.64 nM
SMILES: O=C(O)c1cc2c(nc(CN3CC=C(c4ccc(F)c(OCc5ccc(Cl)cc5F)n4)CC3)n2C[C@@H]2CCO2)s1 [WXA015]

Oral DNAUC [2]: 307.4 nM.h/mpk
half-life [2]: 1.43 h
Cmax [2]: 0.865 µM
EC50 [1]: 1.44 nM
SMILES: O=C(O)c1cc2nc(CN3CC=C(c4cccc(OCc5ccc(Cl)cc5F)n4)CC3)n(C[C@@H]3CCO3)c2s1 [WXA006]

EC50 [1]: 1.07 nM
SMILES: N#Cc1ccc(COc2cccc(C3CCN(Cc4nc5sc(C(=O)O)cc5n4C[C@@H]4CCO4)CC3)n2)c(F)c1 [WXA003]

Oral DNAUC [2]: 647.4 nM.h/mpk
half-life [2]: 2.07 h
bioavailability [2]: 220%
clearance [2]: 6.24 L/h/kg
Vd [2]: 1.87 L/kg
Cmax [2]: 1.76 µM
EC50 [1]: 0.67 nM
Rank (permeability grade) [3]: Medium
efflux ratio at 150 min, 2 μM [4]: 1.53
Papp B→A at 150 min, 2 μM [5]: 38.7 nm/s
Papp A→B at 150 min, 2 μM [5]: 25.3 nm/s
Cmax [7]: 0.0283 µM
Oral DNAUC [7]: 74 nM.h/mpk
bioavailability [7]: 5.6%
clearance ([7]; single dose): 1.36 L/h/kg
Vd ([7]; single dose): 0.73 L/kg
SMILES: N#Cc1ccc(COc2cccc(C3=CCN(Cc4nc5sc(C(=O)O)cc5n4C[C@@H]4CCO4)CC3)n2)c(F)c1 [WXA001]
IC50 [6]: > 40000 nM
Maximum concentration inhibition rate (%) [6]: 30.4%

EC50 [1]: 0.2 nM
SMILES: O=C(O)c1sc2nc(CN3CC=C(c4cccc(OCc5ccc(Cl)cc5F)n4)CC3)n(C[C@@H]3CCO3)c2c1F [WXA007]
